Measurements: US10202361B2, “Pyridazinones as herbicides” (E I DU PONT DE NEMOURS AND COMPANY, priority 2014, dated 2019)
Read-outs that look alike come from different tables or passages of the source.

How the values were obtained:
Type in all cases: in vivo
[1] = tested on: ducksalad (Heteranthera limosa); test: Test B flooded paddy test; conditions: Heteranthera limosa, 312 h; Flood, 250 g ai/ha; scale of 0 to 100, 0 is no effect, 100 is complete control; 13 to 15 d; read-out: Plant response rating, Ducksalad
Procedure, shortened: (§1)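 Plants at the 2-leaf stage were flooded to 3 cm and treated by applying compound directly to the paddy water, with depth held constant throughout. After 13–15 d in a greenhouse, injury was rated visually against controls on a 0 (no effect) to 100 (complete control) scale.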

[2] = tested on: barnyardgrass (Echinochloa crus-galli); test: Test B flooded paddy test; conditions: Echinochloa crus-galli, 312 h; Flood, 250 g ai/ha; scale of 0 to 100, 0 is no effect, 100 is complete control; 13 to 15 d; read-out: Plant response rating, Barnyardgrass
Procedure, shortened: as §1

[3] = tested on: foxtail, giant (giant foxtail, Setaria faberii); test: Test C pre-/postemergence greenhouse herbicide test; conditions: Setaria faberi, Foxtail, Giant, read-out: Plant response rating; for pest or weed control at 31 g/ha: 31 g ai/ha; for pest or weed control at 62 g/ha: 62 g ai/ha; for pest or weed control at 125 g/ha: 125 g ai/ha; for pest or weed control at 250 g/ha: 250 g ai/ha
Description: (§2) Seeds of plant species selected from blackgrass (Alopecurus myosuroides), bromegrass, downy (downy bromegrass, Bromus tectorum), foxtail, green (green foxtail, Setaria viridis), ryegrass, Italian (Italian ryegrass, Lolium multiflorum), wheat (winter wheat, Triticum aestivum), oat, wild (wild oat, Avena fatua), galium (catchweed bedstraw, Galium aparine), bermudagrass (Cynodon dactylon), surinam grass (Brachiaria decumbens), cocklebur (common cocklebur, Xanthium strumarium), corn (Zea mays), crabgrass, large (large crabgrass, Digitaria sanguinalis), cupgrass, woolly (woolly cupgrass, Eriochloa villosa), foxtail, giant (giant foxtail, Setaria faberii), goosegrass (Eleusine indica), johnsongrass (Sorghum halepense), kochia (Kochia scoparia), lambsquarters (Chenopodium album), morningglory (Ipomoea coccinea), nightshade (eastern black nightshade, Solanum ptycanthum), nutsedge, yellow (yellow nutsedge, Cyperus esculentus), pigweed (Amaranthus retroflexus), ragweed (common ragweed, Ambrosia elatior), soybean (Glycine max), sunflower (common oilseed sunflower, Helianthus annuus), Russian thistle (Salsola kali), barnyardgrass (Echinochloa crus-galli), oilseed rape (Brassica napus), waterhemp (common waterhemp, Amaranthus rudis), and velvetleaf (Abutilon theophrasti) were planted into a blend of loam soil and sand and treated preemergence with test chemicals formulated in a non-phytotoxic solvent mixture which included a surfactant.
(§3) At the same time, plants selected from these crop and weed species and also barley (winter barley, Hordeum vulgare), canarygrass (Phalaris minor), windgrass (Apera spica-venti), deadnettle (henbit deadnettle, Lamium amplexicaule), and chickweed (common chickweed, Stellaria media) were planted in pots containing Redi-Earth® planting medium (Scotts Company, 14111 Scottslawn Road, Marysville, Ohio 43041) comprising spaghnum peat moss, vermiculite, wetting agent and starter nutrients and treated with postemergence applications of test chemicals formulated in the same manner. Plants ranged in height from 2 to 18 cm (1- to 4-leaf stage) for postemergence treatments. Treated plants and controls were maintained in a greenhouse for 13 to 15 d, after which time all species were compared to controls and visually evaluated. Plant response ratings, summarized in Table C, are based on a scale of 0 to 100 where 0 is no effect and 100 is complete control. A dash (-) response means no test result.

[4] = tested on: lambsquarters (Chenopodium album); test: as above
Description: as §2, §3

[5] = tested on: nutsedge, yellow (yellow nutsedge, Cyperus esculentus); test: as above; conditions: Cyperus, Nutsedge, Yellow, read-out: Plant response rating; for pest or weed control at 31 g/ha: 31 g ai/ha; for pest or weed control at 62 g/ha: 62 g ai/ha; for pest or weed control at 125 g/ha: 125 g ai/ha; for pest or weed control at 250 g/ha: 250 g ai/ha
Description: as §2, §3

[6] = tested on: velvetleaf (Abutilon theophrasti); test: as above; conditions: Abutilon theophrasti, Velvetleaf, read-out: Plant response rating; for pest or weed control at 62 g/ha: 62 g ai/ha; for pest or weed control at 125 g/ha: 125 g ai/ha
Description: as §2, §3

[7] = tested on: johnsongrass (Sorghum halepense); test: as above; conditions: Sorghum halepense, Johnsongrass, read-out: Plant response rating; for pest or weed control at 31 g/ha: 31 g ai/ha; for pest or weed control at 62 g/ha: 62 g ai/ha; for pest or weed control at 125 g/ha: 125 g ai/ha; for pest or weed control at 250 g/ha: 250 g ai/ha
Description: as §2, §3

corn (Zea mays) = test: as above; conditions: Zea mays, Corn, read-out: Plant response rating; for plant injury at 31 g/ha: 31 g ai/ha; for plant injury at 62 g/ha: 62 g ai/ha; for plant injury at 125 g/ha: 125 g ai/ha; for plant injury at 250 g/ha: 250 g ai/ha
Description: as §2, §3

soybean (Glycine max) = test: as above; conditions: Glycine max, Soybean, read-out: Plant response rating; for plant injury at 62 g/ha: 62 g ai/ha; for plant injury at 125 g/ha: 125 g ai/ha; for plant injury at 250 g/ha: 250 g ai/ha
Description: as §2, §3

[8] = tested on: pigweed (Amaranthus retroflexus); test: as above; conditions: Amaranthus retroflexus, Pigweed, read-out: Plant response rating; for pest or weed control at 31 g/ha: 31 g ai/ha; for pest or weed control at 62 g/ha: 62 g ai/ha; for pest or weed control at 125 g/ha: 125 g ai/ha; for pest or weed control at 250 g/ha: 250 g ai/ha
Description: as §2, §3

[9] = post-emergence, Postemergence, 31 g ai/ha

For `Cc1cc(=O)n(-c2ccc(F)cc2)nc1Oc1ccnc(C(F)(F)F)c1` [Compound 14, 2-(4-fluorophenyl)-5-methyl-6-[[2-(trifluoromethyl)-4-pyridinyl]oxy]-3 (2H)-pyridazinone], the pest or weed control at 250 g/ha [1] was 75%, the pest or weed control at 250 g/ha [2] was 40% and the pest or weed control at 31 g/ha ([3]; post-emergence, Postemergence) was 5%. For the same compound, the pest or weed control at 62 g/ha ([3]; post-emergence, Postemergence) was 10%, the pest or weed control at 125 g/ha ([3]; post-emergence, Postemergence) was 10% and the pest or weed control at 250 g/ha ([3]; post-emergence, Postemergence) was 15%. The pest or weed control at 31 g/ha ([3]; pre-emergence, Preemergence) was 80%, the pest or weed control at 62 g/ha ([3]; pre-emergence, Preemergence) was 98% and the pest or weed control at 125 g/ha ([3]; pre-emergence, Preemergence) was 100%. It also gave a pest or weed control at 250 g/ha ([3]; pre-emergence, Preemergence) of 100%, a Plant response rating ([4]; Postemergence, 31 g ai/ha) of 40 and a Plant response rating ([4]; Postemergence, 62 g ai/ha) of 40. The Plant response rating ([4]; Postemergence, 125 g ai/ha) was 45, the Plant response rating ([4]; Postemergence, 250 g ai/ha) was 45 and the Plant response rating ([4]; Preemergence, 31 g ai/ha) was 55. For the same compound, the Plant response rating ([4]; Preemergence, 62 g ai/ha) was 95, the Plant response rating ([4]; Preemergence, 125 g ai/ha) was 95 and the Plant response rating ([4]; Preemergence, 250 g ai/ha) was 98. For the same compound, the pest or weed control at 31 g/ha ([5]; post-emergence, Postemergence) was 5%, the pest or weed control at 62 g/ha ([5]; post-emergence, Postemergence) was 5% and the pest or weed control at 125 g/ha ([5]; post-emergence, Postemergence) was 5%. The pest or weed control at 250 g/ha ([5]; post-emergence, Postemergence) was 10%, the pest or weed control at 31 g/ha ([5]; pre-emergence, Preemergence) was 0% and the pest or weed control at 62 g/ha ([5]; pre-emergence, Preemergence) was 5%. For the same compound, the pest or weed control at 125 g/ha ([5]; pre-emergence, Preemergence) was 25%, the pest or weed control at 250 g/ha ([5]; pre-emergence, Preemergence) was 25% and the pest or weed control at 31 g/ha [6, 9] was 10%. The pest or weed control at 62 g/ha ([6]; post-emergence, Postemergence) was 30%, the pest or weed control at 125 g/ha ([6]; post-emergence, Postemergence) was 50% and the pest or weed control at 62 g/ha ([6]; pre-emergence, Preemergence) was 10%. It also gave a pest or weed control at 125 g/ha ([6]; pre-emergence, Preemergence) of 20%, a pest or weed control at 250 g/ha ([6]; pre-emergence, Preemergence, 250 g ai/ha) of 100% and a pest or weed control at 31 g/ha ([7]; post-emergence, Postemergence) of 10%. For the same compound, the pest or weed control at 62 g/ha ([7]; post-emergence, Postemergence) was 15%, the pest or weed control at 125 g/ha ([7]; post-emergence, Postemergence) was 25% and the pest or weed control at 250 g/ha ([7]; post-emergence, Postemergence) was 30%. It also gave a pest or weed control at 31 g/ha ([7]; pre-emergence, Preemergence) of 5%, a pest or weed control at 62 g/ha ([7]; pre-emergence, Preemergence) of 35% and a pest or weed control at 125 g/ha ([7]; pre-emergence, Preemergence) of 35%. For the same compound, the pest or weed control at 250 g/ha ([7]; pre-emergence, Preemergence) was 85%, the plant injury at 31 g/ha (corn (Zea mays); post-emergence, Postemergence) was 20% and the plant injury at 62 g/ha (corn (Zea mays); post-emergence, Postemergence) was 35%. It also gave a plant injury at 125 g/ha (corn (Zea mays); post-emergence, Postemergence) of 40%, a plant injury at 250 g/ha (corn (Zea mays); post-emergence, Postemergence) of 40% and a plant injury at 31 g/ha (corn (Zea mays); pre-emergence, Preemergence) of 0%. It also gave a plant injury at 62 g/ha (corn (Zea mays); pre-emergence, Preemergence) of 35%, a plant injury at 125 g/ha (corn (Zea mays); pre-emergence, Preemergence) of 50% and a plant injury at 250 g/ha (corn (Zea mays); pre-emergence, Preemergence) of 75%. For the same compound, the plant injury at 31 g/ha (soybean (Glycine max); [9]) was 90%, the plant injury at 62 g/ha (soybean (Glycine max); post-emergence, Postemergence) was 90% and the plant injury at 125 g/ha (soybean (Glycine max); post-emergence, Postemergence) was 95%. The plant injury at 250 g/ha (soybean (Glycine max); post-emergence, Postemergence) was 95%, the plant injury at 62 g/ha (soybean (Glycine max); pre-emergence, Preemergence) was 40% and the plant injury at 125 g/ha (soybean (Glycine max); pre-emergence, Preemergence) was 55%. It also gave a plant injury at 250 g/ha (soybean (Glycine max); pre-emergence, Preemergence) of 75%, a pest or weed control at 31 g/ha ([8]; post-emergence, Postemergence) of 60% and a pest or weed control at 62 g/ha ([8]; post-emergence, Postemergence) of 65%. The pest or weed control at 125 g/ha ([8]; post-emergence, Postemergence) was 80%, the pest or weed control at 250 g/ha ([8]; post-emergence, Postemergence) was 85% and the pest or weed control at 31 g/ha ([8]; pre-emergence, Preemergence) was 100%. The pest or weed control at 62 g/ha ([8]; pre-emergence, Preemergence) was 100%, the pest or weed control at 125 g/ha ([8]; pre-emergence, Preemergence) was 100% and the pest or weed control at 250 g/ha ([8]; pre-emergence, Preemergence) was 100%.
